Assays:
PC3 cells = test: In vitro anti-proliferative activity against PC3 cells (agarose, 7 days); format: cell-based; conditions: Homo sapiens, PC-3, 168 h, 7 days of incubation
Experimental: PC3 cells were mixed with 0.4% agarose at 1200 cells/well, and the mixture was seeded on 0.6% agarose. The compound serially diluted was added, and the cell number was measured after 7 days of incubation. The inhibition percentages and IC50 of the compounds were calculated compared to the DMSO group.

[1] = test system: PC3 subcutaneous xenograft tumor; test: In vivo pharmacodynamic study, mouse PC3 subcutaneous xenograft tumor model
Experimental: Each nude mouse was grafted subcutaneously with 10×10^6 PC3 cells. When the tumor grew to 100-200 mm^3, the compound was administered orally once a day, and the tumor volume was measured twice a week and at the end of treatment. Tumor growth inhibition rate of the compound was calculated according to the following equation: tumor growth inhibition (TGI)=1−(tumor volume on day 17 in treatment group−tumor volume on day 1 in treatment group)/(tumor volume on day 17 in vehicle control group−tumor volume on day 1 in […]).

recombinant protein Src = recombinant protein Src (Homo sapiens (Human), UniProt P12931); test: In vitro assay for inhibiting Src kinase activity (biotin-labeled TK substrate, Sa-XL 665, Cryptate-labeled antibody); format: biochemical; conditions: read-out: IC50, inhibitory activity against recombinant protein Src
Experimental: After the compound serially diluted with DMSO and a Src recombinant protein were incubated at room temperature for 10 min, the reaction was initiated by the addition of a biotin-labeled TK substrate and ATP. After the mixture was left to stand at room temperature for 40 min Sa-XL 665 and a Cryptate-labeled antibody were added. The fluorescence values at 615 nm and 665 nm were measured, and the ratio of 665 nm to 615 nm was calculated. The inhibition percentages and IC50 of the compounds were calculated compared to the DMSO group.

[2] = Stability experiment in aqueous hydrochloric acid solution pH 2 (HPLC); format: physicochemical; conditions: for Initial purity: before acid treatment (baseline); for Purity after stirring in an aqueous hydrochloric acid solution with a pH of 2 for 0.5 h: pH 2, room temperature
Experimental: 5 mg each of compound 59 and compound A was dissolved in an aqueous hydrochloric acid solution (5 mL) with a pH of 2. The mixture was stirred at room temperature. Samples were taken after 0.5 h for HPLC assay using the following assay conditions. The HPLC assay results are shown in Table 7. • Instrument: Agilent 1260 infinity 2 • Column: Xtimate C18 4.6*150 mm,3 um • Temperature:25° C. • Wave length:210 nm/254 nm • phase A: H2O (0.1% TFA) • phase B: MECN (0.1% TFA) • Gradient: […]

[3] = In vivo pharmacokinetic experiment in CD-1 female mice; conditions: mouse, plasma, CD-1 mice; for Vd: read-out: Vdss
Experimental: CD-1 female mice aged 7 to 10 weeks were intravenously administered and orally administered at a dose of 2 mg/kg and 10 mg/kg, respectively. The mice were fasted for at least 12 h before the administration and given food 4 h after the administration, and they were given ad libitum access to water during the experiment. On the day of the experiment, animals in the intravenous group were administered the corresponding compound by single injection via the tail vein at an administration volume of 10 mL/kg. Animals in the oral group were administered the corresponding compound by single intragastric injection at an administration volume of 10 mL/kg. The animals were weighed before administration, and the administration volume was calculated according to the body weight. The sample collection time was 0.083 h (injection group), 0.167 h, 0.5 h, 1 h, 2 h, 4 h, 8 h, and 24 h. About 200 μL of whole blood was collected through the submaxillary venous plexus at each time point and used to prepare plasma for concentration determination by high-performance liquid chromatography-tandem mass spectrometry (LC-MS/MS). All animals were euthanized with CO2 anesthesia after the PK samples were collected at the last time point. The plasma concentrations were processed using a non-compartmental model of Phoenix WinNonlin™ version 8.3 (Certara) pharmacokinetic software, and the pharmacokinetic parameters were calculated using a linear-log trapezoidal method.

Sequence of recombinant protein Src (P12931 whole entry, looked up): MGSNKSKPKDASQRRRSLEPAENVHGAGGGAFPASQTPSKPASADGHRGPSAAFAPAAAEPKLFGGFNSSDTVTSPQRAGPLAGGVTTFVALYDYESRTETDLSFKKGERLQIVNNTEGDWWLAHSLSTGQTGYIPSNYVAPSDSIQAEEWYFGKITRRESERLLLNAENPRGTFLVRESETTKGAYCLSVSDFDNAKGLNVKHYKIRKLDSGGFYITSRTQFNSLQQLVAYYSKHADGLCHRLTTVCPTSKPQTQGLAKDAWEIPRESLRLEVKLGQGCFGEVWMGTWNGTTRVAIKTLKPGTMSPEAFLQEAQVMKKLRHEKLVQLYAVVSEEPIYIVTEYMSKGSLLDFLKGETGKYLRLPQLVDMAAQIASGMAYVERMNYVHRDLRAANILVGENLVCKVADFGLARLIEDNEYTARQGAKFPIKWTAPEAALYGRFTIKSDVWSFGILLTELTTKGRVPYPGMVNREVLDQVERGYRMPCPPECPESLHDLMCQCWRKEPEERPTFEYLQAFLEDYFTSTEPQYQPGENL

Compound | IC50 (recombinant protein Src) [nM] | other results
CCOC(=O)Nc1ccc(-c2nn(CCN3CCC(N(C)C)CC3)c3ncnc(N)c23)c2c1OCO2 [Compound 9] | 10 to 50 | 
COc1cc(-c2nn(CCN3CCC(N(C)C)CC3)c3ncnc(N)c23)ccc1NC(=O)OC(C)(C)C [Compound A, reference compound] |  | Initial purity [2]: 96.18%; Purity after stirring in an aqueous hydrochloric acid solution with a pH of 2 for 0.5 h [2]: Complete degradation; AUC(0-t) ([3]; oral administration 10 mg/kg): 1440 ng·h/mL; Cmax ([3]; oral administration 10 mg/kg): 211 ng/mL; bioavailability ([3]; oral administration 10 mg/kg): 42.9%; half-life ([3]; oral administration 10 mg/kg): 5.7 h; AUC(0-t) ([3]; iv, injection 2 mg/kg): 682 ng·h/mL; clearance ([3]; iv, injection 2 mg/kg): 775 mL/min/kg; half-life ([3]; iv, injection 2 mg/kg): 6.4 h; Vd ([3]; iv, injection 2 mg/kg): 15.2 L/kg
CN(C)C1CCN(CCn2nc(-c3ccc(NC(=O)OC4CCCC4)c4c3OCO4)c3c(N)ncnc32)CC1 [Compound 13] | 10 to 50 | 
CC(C)OC(=O)Nc1ccc(-c2nn(CCN3CCC(N(C)C)CC3)c3ncnc(N)c23)c2c1OCO2 [Compound 8] | 10 to 50 | 
CN(C)C1CCN(CCn2nc(-c3c(F)cc(NC(=O)OC(C)(C)C)c4c3OCO4)c3c(N)ncnc32)CC1 [Compound 18] | 10 to 50 | 
COc1cc(-c2nn(CCN3CCC(N(C)C)CC3)c3ncnc(N)c23)ccc1NC(=O)OC1CC1 [Compound 63] | ≤ 10 | 
CC(C)(C)OC(=O)Nc1ccc(-c2nn(CCN3CCC(N4CCOCC4)CC3)c3ncnc(N)c23)c2c1OCO2 [Compound 57] | ≤ 10 | 
CN(C)C1CCN(CCn2nc(-c3ccc(NC(=O)OC45CC(C4)C5)c4c3OCO4)c3c(N)ncnc32)CC1 [Compound 7] | ≤ 10 | 
COc1cc(-c2nn(CCN3CCC(N(C)C)CC3)c3ncnc(N)c23)ccc1NC(=O)OC1CC(F)(F)C1 [Compound 70] | ≤ 10 | 
CN(C)C1CCN(CCn2nc(-c3ccc(NC(=O)OC(C)(C)C)c4c3OCO4)c3c(N)ncnc32)CC1 [Compound 1] | ≤ 10 | IC50 (PC3 cells): 3.5 nM
CN(C)C1CCN(CCn2nc(-c3cc(F)c(NC(=O)OC(C)(C)C)c4c3OCO4)c3c(N)ncnc32)CC1 [Compound 17] | 10 to 50 | 
CN(C)C1CCN(CCn2nc(-c3ccc(NC(=O)OC(C)(C)C)c4c3OC(F)(F)O4)c3c(N)ncnc32)CC1 [Compound 51] | ≤ 10 | 
CN(C)[C@@H]1CCN(CCn2nc(-c3ccc(NC(=O)OC(C)(C)C)c4c3OCO4)c3c(N)ncnc32)C1 [Compound 39] | ≤ 10 | 
CN(C)C1CCN(CCn2nc(-c3ccc(NC(=O)OC4CC4)c4c3OCO4)c3c(N)ncnc32)CC1 [Compound 2] | ≤ 10 | 
COc1cc(-c2nn(CCN3CCC(N(C)C)CC3)c3ncnc(N)c23)ccc1NC(=O)OC1(C)CCC1 [Compound 61] | ≤ 10 | IC50 (PC3 cells): 5.6 nM
CN(C)C1CCN(CCn2nc(-c3ccc(NC(=O)OC4C5CC4C5)c4c3OCO4)c3c(N)ncnc32)CC1 (stereo not shown) [Compound 6] | ≤ 10 | 
CN(C)C1CCN(CCn2nc(-c3ncc(NC(=O)OC(C)(C)C)c4c3OCO4)c3c(N)ncnc32)CC1 [Compound 20] | 10 to 50 | 
CN1CCN(C2CCN(CCn3nc(-c4ccc(NC(=O)OC(C)(C)C)c5c4OCO5)c4c(N)ncnc43)CC2)CC1 [Compound 47] | ≤ 10 | 
CN(C)[C@H]1CCN(CCn2nc(-c3ccc(NC(=O)OC(C)(C)C)c4c3OCO4)c3c(N)ncnc32)C1 [Compound 38] | ≤ 10 | 
COc1cc(-c2nn(CCN3CCC(N(C)C4CC4)CC3)c3ncnc(N)c23)ccc1NC(=O)OC1(C)CCC1 [Compound 68] | ≤ 10 | IC50 (PC3 cells): 15.2 nM
CN(C)C1CCN(CCCn2nc(-c3ccc(NC(=O)OC(C)(C)C)c4c3OCO4)c3c(N)ncnc32)CC1 [Compound 52] | ≤ 10 | 
CN(C)C1CCN(CCn2nc(-c3cnc(NC(=O)OC(C)(C)C)c4c3OCO4)c3c(N)ncnc32)CC1 [Compound 19] | 10 to 50 | 
CN1CC(OC(=O)Nc2ccc(-c3nn(CCN4CCC(N5CCC5)CC4)c4ncnc(N)c34)c3c2OCO3)C1 [Compound 48] | ≤ 10 | 
CN(C)CCN(C)CCn1nc(-c2ccc(NC(=O)OC(C)(C)C)c3c2OCO3)c2c(N)ncnc21 [Compound 50] | ≤ 10 | 
COc1cc(-c2nn(CCN3CCC(N(C)C)CC3)c3ncnc(N)c23)ccc1NC(=O)OC1CCC1 [Compound 60] | ≤ 10 | 

Further lines, with some results ahead:

IC50 (recombinant protein Src) [nM] | Compound | other results
≤ 10 | COc1cc(-c2nn(CCN3CCC(N(C)C)CC3)c3ncnc(N)c23)ccc1NC(=O)OC1(C)CC1 [Compound 59] | IC50 (PC3 cells): 5.3 nM; TGI (tumor growth inhibition) ([1]; day 17, oral once a day, 50 mg/kg (day 1-day 7), 80 mg/kg (day 8-day 18)): 53%; Tumor volume on day 17 of treatment ([1]; nude mice, oral once a day, 50 mg/kg (day 1-day 7), 80 mg/kg (day 8-day 18)): 318 mm^3; Tumor volume on day 1 of treatment ([1]; nude mice, oral once a day, baseline day 1): 120 mm^3; Initial purity [2]: 96.35%; Purity after stirring in an aqueous hydrochloric acid solution with a pH of 2 for 0.5 h [2]: 96.16%; AUC(0-t) ([3]; oral administration 10 mg/kg): 491 ng·h/mL; Cmax ([3]; oral administration 10 mg/kg): 88.9 ng/mL; bioavailability ([3]; oral administration 10 mg/kg): 32.1%; half-life ([3]; oral administration 10 mg/kg): 5.3 h; AUC(0-t) ([3]; iv, injection 2 mg/kg): 300 ng·h/mL; clearance ([3]; iv, injection 2 mg/kg): 1770 mL/min/kg; half-life ([3]; iv, injection 2 mg/kg): 5.9 h; Vd ([3]; iv, injection 2 mg/kg): 35.6 L/kg
≤ 10 | CC(C)(C)OC(=O)Nc1ccc(-c2nn(CCN3CCN(CCO)CC3)c3ncnc(N)c23)c2c1OCO2 [Compound 41] | 
≤ 10 | CN(C)CC1CCN(CCn2nc(-c3ccc(NC(=O)OC(C)(C)C)c4c3OCO4)c3c(N)ncnc32)CC1 [Compound 43] | 
≤ 10 | CC(C)(C)OC(=O)Nc1ccc(-c2nn(CCN3CCC(N4CCCC4)CC3)c3ncnc(N)c23)c2c1OCO2 [Compound 37] | IC50 (PC3 cells): 11.7 nM
≤ 10 | CN(C)C1CCN(CCn2nc(-c3ccc(NC(=O)OC4CCC4)c4c3OCO4)c3c(N)ncnc32)CC1 [Compound 4] | 
≤ 10 | COc1cc(-c2nn(CCN3CCC(N(C)C)CC3)c3ncnc(N)c23)ccc1NC(=O)OC1C2CC1C2 (stereo not shown) [Compound 64] | 
≤ 10 | CN(C)C1CCN(CCn2nc(-c3ccc(NC(=O)OC4(C)CCC4)c4c3OCO4)c3c(N)ncnc32)CC1 [Compound 5] | IC50 (PC3 cells): 4.2 nM
≤ 10 | COc1cc(-c2nn(CCN3CCC(N(C)C)CC3)c3ncnc(N)c23)ccc1NC(=O)OC12CC(C1)C2 [Compound 65] | 
≤ 10 | CN(C)C1CCN(CCn2nc(-c3ccc(NC(=O)OC4COC4)c4c3OCO4)c3c(N)ncnc32)CC1 [Compound 14] | 
≤ 10 | CN1CCC2(CC1)CCN(CCn1nc(-c3ccc(NC(=O)OC(C)(C)C)c4c3OCO4)c3c(N)ncnc31)CC2 [Compound 49] | 
≤ 10 | COCCN1CCN(CCn2nc(-c3ccc(NC(=O)OC(C)(C)C)c4c3OCO4)c3c(N)ncnc32)CC1 [Compound 45] | 
≤ 10 | CN(C)CCC1CCN(CCn2nc(-c3ccc(NC(=O)OC(C)(C)C)c4c3OCO4)c3c(N)ncnc32)CC1 [Compound 44] | 
≤ 10 | CN(C)C1CCN(CCn2nc(-c3ccc(NC(=O)OC4(C)CC4)c4c3OCO4)c3c(N)ncnc32)CC1 [Compound 3] | IC50 (PC3 cells): 4.8 nM
≤ 10 | COc1cc(-c2nn(CCN3CCC(N(C)C4CC4)CC3)c3ncnc(N)c23)ccc1NC(=O)OC1(C)CC1 [Compound 69] | IC50 (PC3 cells): 12.5 nM
≤ 10 | CN(C1CC1)C1CCN(CCn2nc(-c3ccc(NC(=O)OC(C)(C)C)c4c3OCO4)c3c(N)ncnc32)CC1 [Compound 36] | 
≤ 10 | CN(C)CCN1CCN(CCn2nc(-c3ccc(NC(=O)OC(C)(C)C)c4c3OCO4)c3c(N)ncnc32)CC1 [Compound 42] | 
≤ 10 | CN(C)C1CCN(CCn2nc(-c3ccc(NC(=O)OC4CC(F)(F)C4)c4c3OCO4)c3c(N)ncnc32)CC1 [Compound 12] | 
≤ 10 | COC1CCN(CCn2nc(-c3ccc(NC(=O)OC(C)(C)C)c4c3OCO4)c3c(N)ncnc32)CC1 [Compound 58] | 
≤ 10 | COc1cc(-c2nn(CCN3CCC(N(C)C4CC4)CC3)c3ncnc(N)c23)ccc1NC(=O)OC(C)(C)C [Compound 62] | IC50 (PC3 cells): 10.1 nM
≤ 10 | CC(C)(C)OC(=O)Nc1ccc(-c2nn(CCN3CCC(C#N)CC3)c3ncnc(N)c23)c2c1OCO2 [Compound 46] | 

Reference: patent publication US20250042904A1, “COMPOUNDS USED AS SRC INHIBITORS” (WIGEN BIOMEDICINE TECHNOLOGY (SHANGHAI) CO., LTD., priority 2021, published 2025)
